From ChEMBL document CHEMBL5113480, “Discovery of novel biphenyl-substituted pyridone derivatives as potent non-nucleoside reverse transcriptase inhibitors with promising oral bioavailability” (Eur J Med Chem, 2022) come the findings set out here.

Data set [1] has as its system Human immunodeficiency virus 1. Description: Antiviral activity against HIV-1 E138K mutant infected in human MT4 cells assessed as reduction in viral replication by MTT assay. Particulars: Human immunodeficiency virus 1, E138K mutant. In kind it is functional, organism-based.
For data set [2], the target named is Human immunodeficiency virus type 1 reverse transcriptase (Human immunodeficiency virus 1, UniProt Q72547). Briefly: Inhibition of wild type HIV-1 Reverse transcriptase.
Data set [3] relates to Human immunodeficiency virus 1. Description: Antiviral activity against HIV-1 K103N mutant infected in human MT4 cells assessed as reduction in viral replication by MTT assay. In kind it is functional, organism-based. The settings on record: Human immunodeficiency virus 1, K103N mutant.
Data set [4] in a line: Cytotoxicity against human MT4 cells assessed as reduction on cell growth by MTT assay. In kind it is toxicity, cell-based.
In data set [5] the test system is Human immunodeficiency virus 1. Description: Antiviral activity against HIV-1 K103N-Y181C mutant infected in human MT4 cells assessed as reduction in viral replication by MTT assay. The settings on record: Human immunodeficiency virus 1, K103N-Y181C mutant. The class given is functional, organism-based.
The subject of data set [6] is Human immunodeficiency virus 1. Description: Antiviral activity against HIV-1 ROD infected in human MT4 cells assessed as reduction in viral replication by MTT assay. In kind it is functional, organism-based.
A short description of data set [7]: Selectivity index, ratio of CC50 for cytotoxicity against human MT4 cells to EC50 of Anti-HIV activity against HIV-1 IIIB infected in human MT4 cells. In kind it is toxicity, cell-based. Particulars: read-out: Ratio CC50/EC50.
In data set [8] the test system is Human immunodeficiency virus 1. Briefly: Antiviral activity against HIV-1 Y188L mutant infected in human MT4 cells assessed as reduction in viral replication by MTT assay. The settings on record: Human immunodeficiency virus 1, Y188L mutant. The class given is functional, organism-based.
Data set [9] has as its system Human immunodeficiency virus 1. Briefly: Antiviral activity against HIV-1 F227L-V106A mutant infected in human MT4 cells assessed as reduction in viral replication by MTT assay. The settings on record: Human immunodeficiency virus 1, F227L-V106A mutant. In kind it is functional, organism-based.
The subject of data set [10] is Human immunodeficiency virus 1. Description: Antiviral activity against HIV-1 IIIB infected in human MT4 cells assessed as reduction in viral replication by MTT assay. The class given is functional, organism-based. The settings on record: Human immunodeficiency virus 1, IIIB.
The subject of data set [11] is Human immunodeficiency virus 1. Description: Antiviral activity against HIV-1 L100I mutant infected in human MT4 cells assessed as reduction in viral replication by MTT assay. In kind it is functional, organism-based. Particulars: Human immunodeficiency virus 1, L100I mutant.
Data set [12] concerns Human immunodeficiency virus 1. Description: Antiviral activity against HIV-1 Y181C mutant infected in human MT4 cells assessed as reduction in viral replication by MTT assay. The class given is functional, organism-based. Particulars: Human immunodeficiency virus 1, Y181C mutant.

pEC50, pIC50: −log10 of the molar value. Some results are limits rather than exact numbers.

Regarding `Cn1c(Cn2ccc(C(F)(F)F)c(Oc3ccc(-c4cccc(F)c4)c(F)c3)c2=O)n[nH]c1=O`, the pEC50 in [1] is 5.67; in data set [3], 5.36; in data set [5], below 4.46; in data set [6], below 4.46; in data set [8], below 4.46; in data set [9], below 4.46. In addition, the negative-log EC50 (pEC50) in data set [10] was 5.85; in data set [11] it was 5.82; in data set [12], 4.54. This compound gave a pIC50 in data set [2] of 5.63. The CC50 in data set [4] is 51.5 µM. Besides, the selectivity ratio in data set [7] was found to be 36.4.

Consider `Cc1cccc(-c2ccc(Oc3c(C(F)(F)F)ccn(Cc4n[nH]c(=O)n4C)c3=O)cc2C)c1`, for which the pEC50 in [1], in [3], in data set [5], in data set [6], in data set [8] and in [9] was below 4.46 in each case. For the same compound, the figures for the pEC50 in data set [10], in data set [11] and in data set [12] were 5.36, 5.49 and 5.12, respectively. In data set [2], the pIC50 is 5.18. The CC50 in [4] turned out to be 23.8 µM. For the same compound, the selectivity ratio in [7] was determined as 5.43.

As for `Cc1cc(Oc2c(C(F)(F)F)ccn(Cc3n[nH]c(=O)n3C)c2=O)ccc1-c1ccc(F)c(C#N)c1`, the pEC50 in [1] is 5.86; in [3] it was 5.63; in [5], below 4.46; in [6], below 4.46; in data set [8], below 4.46; in [9] it was below 4.46. Also, the figures for the pEC50 in data set [10], in [11] and in data set [12] were 6.22, 5.80 and 5.16, respectively. Moreover, the pIC50 in [2] was 5.84. Further, the CC50 in [4] came to 42.5 µM. Also, the selectivity ratio in data set [7] is 70.6.

As for `Cc1cc(Oc2c(C(F)(F)F)ccn(Cc3n[nH]c(=O)n3C)c2=O)ccc1-c1cc(F)cc(C#N)c1`, the negative-log EC50 (pEC50) in data set [1] was 5.60; in data set [3], 5.10; in data set [5], below 4.46; in data set [6], below 4.46; in [8], below 4.46; in data set [9] it was below 4.46. Further, the values for the negative logarithm of the EC50 (pEC50) in [10], in data set [11] and in data set [12] were 5.81, 5.42 and below 4.46, respectively. The same compound gave a pIC50 in [2] of 5.44. In data set [4], the 50% cytotoxic concentration (CC50) is 45.6 µM. Also, the selectivity ratio in [7] was 29.4.

As for `Cn1c(Cn2ccc(C(F)(F)F)c(Oc3ccc(-c4cc(F)cc(C#N)c4)c(F)c3)c2=O)n[nH]c1=O`, the pEC50 was 5.87 in data set [1]; 5.61 in data set [3]; 4.44 in data set [5]; below 4.46 in [6]; 4.40 in data set [8]; below 4.46 in data set [9]. Also, the pEC50 in [10] was 6.13; in data set [11], 5.73; in [12], 4.92. This compound also gave a pIC50 in [2] of 5.99. For the same compound, the CC50 in data set [4] is 105 µM. For the same compound, the selectivity ratio in data set [7] turned out to be 143.

On to `Cn1c(Cn2ccc(C(F)(F)F)c(Oc3ccc(-c4cccc(C#N)c4)cc3F)c2=O)n[nH]c1=O`, for which the negative-log EC50 (pEC50) was 5.27 in data set [1]; 5.13 in data set [3]; below 4.46 in data set [5]; below 4.46 in data set [6]; below 4.46 in [8]; below 4.46 in data set [9]. For the same compound, the pEC50 in [10] is 5.43; in data set [11] it was 5.31; in data set [12] it was below 4.46. In data set [2], this compound gave a negative-log IC50 (pIC50) of 5.30. For the same compound, the half-maximal cytotoxic concentration (CC50) in data set [4] came out at 35.3 µM. For the same compound, the selectivity ratio in data set [7] was determined as 9.6.

As for `Cc1cc(Oc2c(C(F)(F)F)ccn(Cc3n[nH]c(=O)n3C)c2=O)ccc1-c1cccc(C#N)c1`, the negative-log EC50 (pEC50) in [1] was 6.00; in data set [3], 5.68; in [5], 4.48; in data set [6] it was below 4.46; in data set [8] it was 4.41; in data set [9], below 4.46. In addition, the pEC50 in data set [10] is 6.15; in data set [11], 5.87; in data set [12] it was 5.20. The compound further showed a pIC50 in data set [2] of 5.82. For the same compound, in data set [4], the CC50 came out at 82.7 µM. Also, the selectivity ratio in [7] worked out at 118.

`Cn1c(Cn2ccc(C(F)(F)F)c(Oc3ccc(-c4ccc(C#N)cc4)c(F)c3)c2=O)n[nH]c1=O`: the negative logarithm of the EC50 (pEC50) in [1] was 5.71; in [3], 5.44; in data set [5], below 4.46; in data set [6], below 4.46; in data set [8], below 4.46; in data set [9], below 4.46. For the same compound, the pEC50 in data set [10] is 5.89; in [11], 5.92; in data set [12] it was 4.71. The negative logarithm of the IC50 (pIC50) in data set [2] is 5.82. In addition, in [4], the 50% cytotoxic concentration (CC50) worked out at 48.5 µM. For the same compound, the selectivity ratio in data set [7] was 37.8.

On to `Cc1cc(Oc2c(C(F)(F)F)ccn(Cc3n[nH]c(=O)n3C)c2=O)ccc1-c1cccc(F)c1`, for which the pEC50 was 5.40 in [1]; 4.96 in data set [3]; below 4.46 in [5]; below 4.46 in [6]; below 4.46 in data set [8]; below 4.46 in data set [9]. The pEC50 is 5.56 in data set [10], 5.67 in data set [11] and below 4.46 in data set [12]. Further, the pIC50 in data set [2] was 5.33. In addition, the CC50 in [4] worked out at 55.9 µM. Also, the selectivity ratio in [7] turned out to be 20.1.

In the case of `Cc1cc(Oc2c(C(F)(F)F)ccn(Cc3n[nH]c(=O)n3C)c2=O)ccc1-c1ccc(C#N)cc1`, the pEC50 in data set [1] is 5.43; in data set [3], 5.08; in data set [5] it was below 4.46; in data set [6], below 4.46; in data set [8], below 4.46; in data set [9], below 4.46. Besides, the negative-log EC50 (pEC50) in [10] was 5.66; in [11], 5.63; in data set [12], 5.05. The compound further gave a pIC50 in data set [2] of 5.38. Also, the CC50 in data set [4] stood at 52.1 µM. For the same compound, the selectivity ratio in [7] was 24.

Regarding `Cn1c(Cn2ccc(C(F)(F)F)c(Oc3ccc(-c4ccc(F)c(C#N)c4)cc3F)c2=O)n[nH]c1=O`, the pEC50 in data set [1] is 5.11; in [3] it was 5.14; in data set [5], below 4.46; in data set [6], below 4.46; in [8] it was 4.35; in data set [9], below 4.46. Moreover, the values for the pEC50 in data set [10], in data set [11] and in data set [12] were 5.29, 5.14 and 4.40, respectively. For the same compound, the pIC50 in [2] was 5.15. The cytotoxic concentration (CC50) in data set [4] was 65.5 µM. Further, in [7], the selectivity ratio was found to be 12.8.

`Cn1c(Cn2ccc(C(F)(F)F)c(Oc3ccc(-c4ccc(C#N)cc4)cc3F)c2=O)n[nH]c1=O`: the negative-log EC50 (pEC50) in [1] was 5.15; in [3], 5.21; in data set [5] it was below 4.46; in data set [6], below 4.46; in data set [8], below 4.46; in data set [9], below 4.46. Besides, the values for the pEC50 in [10], in data set [11] and in data set [12] were 5.32, 5.34 and 4.32, respectively. In [2], this compound gave a negative logarithm of the IC50 (pIC50) of 5.20. In addition, in [4], the CC50 worked out at 41.8 µM. For the same compound, in data set [7], the selectivity ratio is 8.72.

Consider `Cc1ccccc1-c1ccc(Oc2c(C(F)(F)F)ccn(Cc3n[nH]c(=O)n3C)c2=O)cc1F`, for which the negative-log EC50 (pEC50) in data set [1] was 5.35; in data set [3], 5.11; in data set [5], 3.94; in data set [6], below 4.46; in data set [8] it was 3.98; in data set [9], below 4.46. Moreover, the pEC50 was 5.41 in data set [10], 5.28 in data set [11] and 5.26 in data set [12]. Also, in data set [2], the pIC50 is 5.49. Besides, in data set [4], the cytotoxic concentration (CC50) was 33.8 µM. The selectivity ratio in [7] is 8.6.

As to `Cn1c(Cn2ccc(C(F)(F)F)c(Oc3ccc(-c4ccc(F)c(C#N)c4)c(F)c3)c2=O)n[nH]c1=O`, the pEC50 in data set [1] was 5.82; in data set [3] it was 5.67; in data set [5], 4.35; in data set [6], below 4.46; in data set [8] it was 4.38; in data set [9], 4.37. The negative logarithm of the EC50 (pEC50) in [10] was 6.05; in data set [11] it was 5.76; in [12] it was 4.65. Moreover, in data set [2], the pIC50 was 5.95. Further, the CC50 in [4] amounted to 69.5 µM. Further, in data set [7], the selectivity ratio is 78.5.

`Cn1c(Cn2ccc(C(F)(F)F)c(Oc3ccc(-c4cccc(C#N)c4)c(F)c3F)c2=O)n[nH]c1=O`: the negative-log EC50 (pEC50) in [1] was 5.80; in data set [3], 5.54; in [5] it was below 4.46; in data set [6], below 4.46; in [8], below 4.46; in data set [9], below 4.46. Further, the negative-log EC50 (pEC50) in data set [10] is 6.02; in [11], 5.80; in [12], 5.08. In [2], this compound had a pIC50 of 5.88. In addition, the half-maximal cytotoxic concentration (CC50) in [4] is 48.8 µM. Also, in data set [7], the selectivity ratio was 50.8.

Turning to `Cn1c(Cn2ccc(C(F)(F)F)c(Oc3ccc(-c4cc(F)cc(C#N)c4)cc3F)c2=O)n[nH]c1=O`, the negative-log EC50 (pEC50) is 5.40 in [1]; 5.08 in data set [3]; below 4.46 in data set [5]; below 4.46 in data set [6]; 4.38 in data set [8]; 4.41 in [9]. For the same compound, the pEC50 was 5.47 in data set [10], 5.43 in data set [11] and 4.41 in [12]. In addition, the pIC50 in [2] is 5.22. For the same compound, the CC50 in data set [4] was 69.2 µM. Besides, the selectivity ratio in data set [7] was found to be 20.6.
